# Experimental data reported in US20230416228A1 (Forkhead Biotherapeutics, Inc., priority 2020, published 2023).
# Biological target: T1, human FOXO1 (constitutively active form Thr24Ala, Ser256Ala, Ser319Ala) (Homo sapiens, UniProt Q12778, S256A/S319A/T24A)
# T1 construct: expressed in transfected cells; host or cells: HEK293 cells transfected with pcDNA3.1 plasmid
# Assay: FOXO1 inhibitor activity assay: cell-based transcriptional (luciferase) reporter assay in HEK293 cells
# Settings: HEK293 cells transfected with insulin response element firefly luciferase reporter, FOXO1 and Renilla luciferase; 10-point dose response 50 μM to 2.5 nM; 24 hours
# Protocol: The inhibitory activities of compounds on FOXO1 were determined by a cell-based transcriptional reporter assay. HEK293 cells were plated onto either 384-well poly-D-lysine coated plates (at 7500 cells per well) or 96-well plates (at 20000 cells per well) in low glucose Eagle's Minimum Essential Medium (EMEM) containing 1% fetal bovine serum, and incubated overnight at 37° C. and 5% CO2. […] Duplicate wells were included for each treatment condition. Cells were incubated for 24 hours at 37° C. and 5% CO2. Luciferase activities in each well were measured using Dual-Glog Luciferase Assay System (Promega) according to manufacturer's protocol and an Envision plate reader suitable for luminescence detection. Firefly luciferase activity was divided by Renilla luciferase activity to calculate a ratio for each well. The ratio in wells containing cells transfected with all 3 plasmids listed above and receiving only DMSO without compound addition was set to 100%. The ratio in wells containing cells transfected with plasmid (1), plasmid (3), and pcDNA3.1 containing the open reading frame of red fluorescent protein (instead of human FOXO1) and treated with DMSO was set to 0%. The ratio in each well receiving compound treatment was normalized and expressed as a percentage. Data were fit by 4-parameter logistic regression to determine IC50 and maximal inhibition values. Each compound was tested in a minimum of 2 independent experiments.
# T1 sequence (Q12778 whole entry T24A/S256A/S319A): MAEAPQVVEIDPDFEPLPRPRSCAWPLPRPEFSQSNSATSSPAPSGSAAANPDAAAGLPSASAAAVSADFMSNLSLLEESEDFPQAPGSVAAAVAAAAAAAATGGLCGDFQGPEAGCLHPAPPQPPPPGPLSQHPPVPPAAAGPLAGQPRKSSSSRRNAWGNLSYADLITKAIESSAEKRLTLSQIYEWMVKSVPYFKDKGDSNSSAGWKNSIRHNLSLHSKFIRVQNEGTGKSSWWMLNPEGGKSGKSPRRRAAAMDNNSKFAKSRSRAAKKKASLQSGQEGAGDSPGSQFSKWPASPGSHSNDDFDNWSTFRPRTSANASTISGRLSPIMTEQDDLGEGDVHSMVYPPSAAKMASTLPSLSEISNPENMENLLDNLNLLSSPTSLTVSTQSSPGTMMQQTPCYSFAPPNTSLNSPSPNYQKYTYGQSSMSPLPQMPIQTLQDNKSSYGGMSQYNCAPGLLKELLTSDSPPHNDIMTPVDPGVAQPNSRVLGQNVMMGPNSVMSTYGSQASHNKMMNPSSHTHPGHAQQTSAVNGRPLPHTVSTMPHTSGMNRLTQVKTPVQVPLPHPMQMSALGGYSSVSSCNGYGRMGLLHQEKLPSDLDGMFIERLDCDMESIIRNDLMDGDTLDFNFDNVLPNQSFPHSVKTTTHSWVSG
row,SMILES,IC50 [nM]
1,"O=C(Nc1cc(-c2nc3cc(F)ccc3[nH]2)[nH]n1)c1ccc(N2CCC(O)CC2)nc1 [Compound A-81, N-[5-(5-fluoro-1H-benzimidazol-2-yl)-1H-pyrazol-3-yl]-6-(4-hydroxy-1-piperidyl)pyridine-3-carboxamide]",100 to 300
2,"CN1CCN(c2ccc(C(=O)Nc3cc(-c4nc5ccccc5[nH]4)[nH]n3)cc2)CC1=O [Compound A-242, N-[5-(1H-benzimidazol-2-yl)-1H-pyrazol-3-yl]-4-(4-methyl-3-oxo-piperazin-1-yl)benzamide]",100 to 300
3,"COc1cc(F)c2[nH]c(-c3cc(NC(=O)c4ccc(N5CCN(CCO)CC5)cc4)nn3C)nc2c1 [Compound A-222, N-[5-(7-fluoro-5-methoxy-1H-benzimidazol-2-yl)-1-methyl-pyrazol-3-yl]-4-[4-(2-hydroxyethyl)piperazin-1-yl]benzamide]",< 100
4,"COCCn1nc(NC(=O)c2ccc(OC)c(Cl)c2)cc1-c1nc2ccccc2[nH]1 [Compound A-175, N-[5-(1H-benzimidazol-2-yl)-1-(2-methoxyethyl)pyrazol-3-yl]-3-chloro-4-methoxy-benzamide]",> 1000
5,"COCCOc1ccc(C(=O)Nc2cc(-c3nc4cc(OC)ccc4[nH]3)[nH]n2)cc1Cl [Compound A-79, 3-chloro-N-[5-(5-methoxy-1H-benzimidazol-2-yl)-1H-pyrazol-3-yl]-4-(2-methoxyethoxy)benzamide]",< 100
6,"CCOC(=O)[C@@H]1CCCN1c1ccc(C(=O)Nc2cc(-c3nc4cc(F)ccc4[nH]3)n(C)n2)cn1 [Compound A-145, ethyl (25)-1-[5-[[5-(5-fluoro-1H-benzimidazol-2-yl)-1-methyl-pyrazol-3-yl]carbamoyl]-2-pyridyl]pyrrolidine-2-carboxylate]",> 1000
7,"COCCOc1ccc(C(=O)Nc2cc(-c3nc4ccccc4[nH]3)[nH]n2)cc1Cl [Compound A-29, N-[5-(1H-benzimidazol-2-yl)-1H-pyrazol-3-yl]-3-chloro-4-(2-methoxyethoxy)benzamide]",< 100
8,"COc1ccc(C(=O)Nc2cc(-c3nc4ccccc4[nH]3)no2)cc1Cl [Compound A-30, N-[3-(1H-benzimidazol-2-yl)isoxazol-5-yl]-3-chloro-4-methoxy-benzamide]",> 1000
9,"Cn1nc(NC(=O)c2cnc(N3CCC(N4CCOCC4)CC3)cn2)cc1-c1nc2ccccc2[nH]1 [Compound A-205, N-[5-(1H-benzimidazol-2-yl)-1-methyl-pyrazol-3-yl]-5-(4-morpholino-1-piperidyl)pyrazine-2-carboxamide]",300 to 1000
10,"COc1ccc(C(=O)Nc2n[nH]c(-c3nc4ccccc4[nH]3)c2F)cc1Cl [Compound A-76, N-[5-(1H-benzimidazol-2-yl)-4-fluoro-1H-pyrazol-3-yl]-3-chloro-4-methoxy-benzamide]",> 1000
11,"COCCOc1ccc(C(=O)Nc2cc(-c3nc4ccccc4[nH]3)[nH]n2)cc1OC [Compound A-75, N-[5-(1H-benzimidazol-2-yl)-1H-pyrazol-3-yl]-3-methoxy-4-(2-methoxyethoxy)benzamide]",< 100
12,"O=C(Nc1cc(-c2nc3ccccc3[nH]2)[nH]n1)c1ccc(N2CCOCC2)nc1 [Compound A-41, N-[5-(1H-benzimidazol-2-yl)-1H-pyrazol-3-yl]-6-morpholino-pyridine-3-carboxamide]",< 100
13,"COCCCOc1ccc(C(=O)Nc2cc(-c3nc4ccccc4[nH]3)[nH]n2)cc1Cl [Compound A-53, N-[5-(1H-benzimidazol-2-yl)-1H-pyrazol-3-yl]-3-chloro-4-(3-methoxy-propoxy)benzamide]",< 100
14,"O=C(Nc1cc(-c2nc3ccccc3[nH]2)[nH]n1)c1ccc(OCCO)c(F)c1 [Compound A-130, N-[5-(1H-benzimidazol-2-yl)-1H-pyrazol-3-yl]-3-fluoro-4-(2-hydroxyethoxy)benzamide]",300 to 1000
15,"Cc1ccc2[nH]c(-c3cc(NC(=O)c4ccc(N5CCC(CO)CC5)nc4)n[nH]3)nc2c1 [Compound A-98, 6-[4-(hydroxymethyl)-1-piperidyl]-N-[5-(5-methyl-1H-benzimidazol-2-yl)-1H-pyrazol-3-yl]pyridine-3-carboxamide]",< 100

# Now from value to compound:
row,IC50 [nM],SMILES
1,100 to 300,"Cn1nc(NC(=O)c2ccc(N3CCN(CCO)CC3)cc2)cc1-c1nc2ccccc2[nH]1 [Compound A-213, N-[5-(1H-benzimidazol-2-yl)-1-methyl-pyrazol-3-yl]-4-[4-(2-hydroxy-ethyl)piperazin-1-yl]benzamide]"
2,< 100,"C[C@@H]1CN(c2ccc(C(=O)Nc3cc(-c4nc5ccccc5[nH]4)n(C)n3)cn2)CCN1 [Compound A-247, N-[5-(1H-benzimidazol-2-yl)-1-methyl-pyrazol-3-yl]-6-[(3R)-3-methylpiperazin-1-yl]pyridine-3-carboxamide]"
3,> 1000,"COCCn1nc(NC(=O)c2ccc(N3CC(OC)C3)nc2)cc1-c1nc2ccccc2[nH]1 [Compound A-176, N-[5-(1H-benzimidazol-2-yl)-1-(2-methoxyethyl)pyrazol-3-yl]-6-(3-methoxyazetidin-1-yl)pyridine-3-carboxamide]"
4,300 to 1000,"COCCN1CCN(c2ccc(C(=O)Nc3cc(-c4nc5ccccc5[nH]4)n(CCOC)n3)cn2)CC1 [Compound A-178, N-[5-(1H-benzimidazol-2-yl)-1-(2-methoxyethyl)pyrazol-3-yl]-6-[4-(2-methoxyethyl)piperazin-1-yl]pyridine-3-carboxamide]"
5,100 to 300,COCCN1CCN(c2ccc(C(=O)Nc3cc(-c4nc5cccc(F)c5[nH]4)n(C)n3)cn2)CC1 [Compound A-154]
6,100 to 300,"Cn1nc(NC(=O)c2ccc(N3CCC(N4CCOCC4)CC3)nc2)cc1-c1nc2ccccc2[nH]1 [Compound A-208, N-[5-(1H-benzimidazol-2-yl)-1-methyl-pyrazol-3-yl]-6-(4-morpholino-1-piperidyl)pyridine-3-carboxamide]"
7,100 to 300,COCC(=O)N1CCN(c2ccc(C(=O)Nc3cc(-c4nc5ccccc5[nH]4)n(C)n3)cn2)CC1 [Compound A-271]
8,100 to 300,"Cn1nc(NC(=O)c2ccc(N3CCN(C4COC4)CC3)cc2)cc1-c1nc2ccccc2[nH]1 [Compound A-215, N-[5-(1H-benzimidazol-2-yl)-1-methyl-pyrazol-3-yl]-4-[4-(oxetan-3-yl)piperazin-1-yl]benzamide]"
9,300 to 1000,"Cn1nc(NC(=O)c2ccc(N3CCNC(CO)C3)nc2)cc1-c1nc2ccccc2[nH]1 (stereo not drawn) [Compound A-258, N-[5-(1H-benzimidazol-2-yl)-1-methyl-pyrazol-3-yl]-6-[3-(hydroxy-methyl)piperazin-1-yl]pyridine-3-carboxamide]"
10,100 to 300,"C[C@H]1CN(c2ccc(C(=O)Nc3cc(-c4nc5ccccc5[nH]4)n(C)n3)cn2)C[C@H](C)N1 [Compound A-288, N-[5-(1H-benzimidazol-2-yl)-1-methyl-pyrazol-3-yl]-6-[(3S,5S)-3,5-dimethylpiperazin-1-yl]pyridine-3-carboxamide]"
11,300 to 1000,"COC1CN(c2ccc(C(=O)Nc3cc(-c4nc5cccc(F)c5[nH]4)n(C)n3)cn2)C1 [Compound A-137, N-[5-(4-fluoro-1H-benzimidazol-2-yl)-1-methyl-pyrazol-3-yl]-6-(3-methoxyazetidin-1-yl)pyridine-3-carboxamide]"
12,< 100,"CC(=O)N1CCN(c2ccc(C(=O)Nc3cc(-c4nc5ccccc5[nH]4)n(C)n3)cn2)CC1 [A-231, 6-(4-acetylpiperazin-1-yl)-N-[5-(1H-benzimidazol-2-yl)-1-methyl-pyrazol-3-yl]pyridine-3-carboxamide]"
